Reference: ChEMBL document CHEMBL1136499, “Tripeptidyl-peptidase II (TPP II) inhibitory activity of (S)-2,3-dihydro-2-(1H-imidazol-2-yl)-1H-indoles, a systematic SAR evaluation. Part 2” (Bioorg Med Chem Lett, 2003)

What follows are compounds tested against Tripeptidyl-peptidase 2 (Rattus norvegicus, UniProt Q64560) (assay: Inhibition of Tripeptidyl-peptidase II purified from a rat liver post-lysosomal fraction.).
Tripeptidyl-peptidase 2, sequence (Q64560 whole entry): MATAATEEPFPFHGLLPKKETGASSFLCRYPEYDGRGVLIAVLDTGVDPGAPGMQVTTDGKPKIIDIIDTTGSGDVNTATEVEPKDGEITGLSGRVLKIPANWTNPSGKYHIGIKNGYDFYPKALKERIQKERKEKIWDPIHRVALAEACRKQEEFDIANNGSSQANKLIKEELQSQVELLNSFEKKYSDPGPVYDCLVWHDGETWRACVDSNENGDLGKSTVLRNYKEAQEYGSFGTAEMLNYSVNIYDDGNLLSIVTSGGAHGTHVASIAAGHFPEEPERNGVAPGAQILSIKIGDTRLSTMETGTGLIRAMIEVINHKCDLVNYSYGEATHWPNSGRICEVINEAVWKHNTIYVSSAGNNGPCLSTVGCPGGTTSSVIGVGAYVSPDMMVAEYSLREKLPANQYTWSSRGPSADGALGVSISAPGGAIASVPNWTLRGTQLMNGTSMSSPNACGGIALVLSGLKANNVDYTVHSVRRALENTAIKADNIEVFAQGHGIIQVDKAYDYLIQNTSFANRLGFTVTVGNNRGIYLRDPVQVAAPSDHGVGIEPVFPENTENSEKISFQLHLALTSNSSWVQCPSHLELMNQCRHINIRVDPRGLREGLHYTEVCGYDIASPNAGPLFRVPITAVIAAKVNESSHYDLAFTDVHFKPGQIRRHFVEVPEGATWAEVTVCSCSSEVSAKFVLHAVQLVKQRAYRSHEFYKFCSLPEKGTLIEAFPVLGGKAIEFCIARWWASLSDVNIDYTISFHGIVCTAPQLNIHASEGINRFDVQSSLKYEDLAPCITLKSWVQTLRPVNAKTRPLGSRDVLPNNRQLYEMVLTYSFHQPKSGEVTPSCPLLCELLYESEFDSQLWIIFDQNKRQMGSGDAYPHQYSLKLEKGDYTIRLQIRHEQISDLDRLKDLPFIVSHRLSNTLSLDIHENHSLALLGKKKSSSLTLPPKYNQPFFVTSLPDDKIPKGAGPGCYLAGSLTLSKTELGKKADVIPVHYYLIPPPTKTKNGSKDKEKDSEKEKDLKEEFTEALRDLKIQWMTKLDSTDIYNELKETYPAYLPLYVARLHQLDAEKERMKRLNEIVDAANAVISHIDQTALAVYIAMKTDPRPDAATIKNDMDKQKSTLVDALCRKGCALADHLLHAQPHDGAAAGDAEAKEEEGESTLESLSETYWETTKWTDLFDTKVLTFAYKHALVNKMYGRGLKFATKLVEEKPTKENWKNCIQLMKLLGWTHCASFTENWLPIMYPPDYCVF
With `CCCc1cnc([C@@H]2Cc3ccccc3N2C(=O)c2ccccc2N)[nH]1` the IC50 was greater than 10000 nM.
`CCCc1nnc([C@@H]2Cc3ccccc3N2C(=O)CN)o1` was tested, and the IC50 was 2200 nM.
`CCc1cnc([C@@H]2Cc3ccccc3N2C[C@H](C)N)[nH]1` was tested, and the IC50 was greater than 10000 nM.
In the case of `CCCc1c[nH]c([C@@H]2Cc3cc(OC)ccc3N2C(=O)CN)n1`, the IC50 is reported as 70 nM.
Work on `CCCc1c[nH]c([C@@H]2Cc3ccccc3N2C(=O)c2c[nH]cn2)n1` yielded an IC50 greater than 10000 nM.
Compound `CCCc1[nH]c([C@@H]2Cc3ccccc3N2C(=O)CN)nc1C(=O)OCC` has an IC50 of 210 nM.
Compound `CCCc1cnc([C@@H]2Cc3ccccc3N2C(=O)[C@H]2CCCN2)[nH]1` has an IC50 of 1400 nM.
`CCCc1nnc([C@@H]2Cc3ccccc3N2C(=O)CN)[nH]1` showed an IC50 greater than 10000 nM.
`CCCc1cnc([C@@H]2Cc3ccccc3N2C(=O)[C@@H](N)Cc2ccccc2)[nH]1` gave an IC50 of 2300 nM.
With `C[C@H](N)C(=O)N1c2ccccc2C[C@H]1c1nc2ccccc2[nH]1` the IC50 was 1400 nM.
With `CCCc1cnc([C@@H]2Cc3cc(F)ccc3N2C(=O)CN)[nH]1` the IC50 was 46 nM.
`CCCc1cnc([C@@H]2Cc3ccccc3N2C(=O)c2cccc([N+](=O)[O-])c2)[nH]1` showed an IC50 greater than 10000 nM.
`CCC(N)C(=O)N1c2ccccc2C[C@H]1c1nc2ccccc2[nH]1` (stereo partly specified) showed an IC50 of 450 nM.
With `CCc1cn(C)c([C@@H]2Cc3ccccc3N2C(=O)CN)n1` the IC50 was 2100 nM.
Work on `CCCc1c[nH]c([C@@H]2Cc3cc(OC)ccc3N2C(=O)[C@H](C)N)n1` yielded an IC50 of 16 nM.
Work on `CCCc1c[nH]c([C@@H]2Cc3ccccc3N2C(=O)[C@@H](N)C(C)C)n1` yielded an IC50 of 20 nM.
`CCCc1c[nH]c([C@@H]2Cc3ccccc3N2C(=O)[C@H](N)CC)n1` showed an IC50 of 4 nM.
`CCc1cnc([C@@H]2Cc3ccccc3N2C(=O)CN)n1C` showed an IC50 greater than 10000 nM.
Work on `CCc1c[nH]c([C@@H]2Cc3ccccc3N2C(=O)[C@H](C)N)n1` yielded an IC50 of 23 nM.
`CCCc1c[nH]c([C@@H]2Cc3ccccc3N2C(=O)CN)n1` gave an IC50 of 36 nM.
Compound `CCCc1c[nH]c([C@@H]2Cc3ccccc3N2C(=O)[C@@H](N)CCC)n1` has an IC50 of 4 nM.
`CCCc1c[nH]c([C@@H]2Cc3ccccc3N2C(=O)c2cccc(N)c2)n1` gave an IC50 greater than 10000 nM.
With `CCCc1nc([C@@H]2Cc3ccccc3N2C(=O)CN)[nH]c1C(N)=O` the IC50 was 200 nM.
In the case of `CCc1cnc([C@@H]2Cc3ccccc3N2C(=O)CN)s1`, the IC50 is reported as 7700 nM.
`CCCc1c[nH]c([C@@H]2Cc3ccccc3N2C(=O)[C@H](C)NC)n1` showed an IC50 greater than 10000 nM.
`NCC(=O)N1c2ccccc2C[C@H]1c1nc(-c2ccccc2)c[nH]1` showed an IC50 greater than 10000 nM.
With `CCCCc1cnc([C@@H]2Cc3ccccc3N2C(=O)CN)[nH]1` the IC50 was 50 nM.
With `CCCc1cnc([C@@H]2Cc3cc(Cl)ccc3N2C(=O)[C@H](C)N)[nH]1` the IC50 was 5 nM.
For `CCc1c[nH]c([C@@H]2Cc3ccccc3N2C(=O)CN)n1`, the IC50 was 194 nM.
`CCCc1[nH]c([C@@H]2Cc3ccccc3N2C(=O)CN)nc1C(=O)NCC(=O)OC` showed an IC50 of 135 nM.
Work on `CCCc1c[nH]c([C@@H]2Cc3cc(Cl)ccc3N2C(=O)CN)n1` yielded an IC50 of 11 nM.
Work on `CCCc1[nH]c([C@@H]2Cc3ccccc3N2C(=O)CN)nc1C` yielded an IC50 of 55 nM.
`CCCc1cnc([C@@H]2Cc3ccccc3N2C(=O)c2ccccc2[N+](=O)[O-])[nH]1` showed an IC50 greater than 10000 nM.
Compound `CCCc1cnc([C@@H]2Cc3ccccc3N2C(=O)CCN)[nH]1` has an IC50 greater than 10000 nM.
`CCCc1c[nH]c([C@@H]2CCc3ccccc3N2C(=O)[C@H](C)N)n1` (stereo in doubt; form 1) was tested, and the IC50 was 800 nM.
For `CCCc1c[nH]c([C@@H]2CCc3ccccc3N2C(=O)[C@H](C)N)n1` (stereo in doubt; form 2), the IC50 was 400 nM.
